Data published in patent US20110033930A1, “METHOD FOR OBTAINING NGN3-EXPRESSING CELLS AND INSULIN PRODUCING-BETA CELLS” (priority 2008, published 2011).
Read-outs that look alike come from different tables or passages of the source.

Experiments:
[1] = tested on: E13.5 rat pancreatic explants; experiment: Real-time PCR of lineage markers in cultured pancreatic explants with HDACi; assay type: cell-based; settings: for endocrine β/δ lineage: MS275 1 μM, NaB 125 μM; for Arx expression enhanced / Ngn3 expression peak, higher than in controls / increase in PP expression / increase in glucagon expression: day7; for SPP1 expression: especially after 5 and 7 days of culture; for Ngn3 expression profile: from day1; for Pax4 expression: over 7 days of culture; for increase in levels of Mist1 / increase in levels of P48 / increase in levels of amylase: vs control
Description: The first day post-coitum was taken as embryonic day 0.5 (E0.5). Pregnant female rats at 13.5 days of gestation were killed by CO2asphyxiation, according to the French Animal Care Committee's guidelines. Dorsal pancreatic buds from E13.5 rat embryos were dissected as described previously (2).
(§2) Organ culture, HDACi treatments, BrdU incorporation: Pancreases were laid on 0.45 μm filters (Millipore) at the air-medium interface in Petri dishes, containing RPMI 1640
RNA extraction and real-time PCR: Total RNA was extracted from pools of at least three pancreases using RNeasy Microkit (Qiagen) and reverse transcribed using Superscript reagents (Invitrogen). Real-time PCR was performed with the 7300 Fast real-time PCR System; each reaction consisted of a mix of Taqman® universal PCR master mix with a specific labelled probe (Applied Biosystem) (21). The comparative method of relative quantification (2^−ΔΔct) (38) was used to calculate expression levels of each target gene, normalized to peptidylpropyl isomerase A (ppia/cyclophilin A). The data are presented as fold changes in gene expression. At least three pools of explants were analyzed per condition and results are expressed as means±SEM. Statistical significance was determined using Student's t test.

[2] = tested on: Total cellular HDAC enzyme activity; experiment: HDAC enzyme activity assay (total cellular HDAC activity of treated explant extracts); assay type: biochemical; settings: extracts of cultured rat pancreatic explants treated with 1 mM VPA or 100 nM TSA
Procedure: HDAC enzyme activity assay: Total cellular HDAC enzyme activity was measured using an HDAC assay kit (Millipore). Briefly, 2 μg of control or VPA- or TSA-treated cell extracts (prepared as described above) were incubated in a 96-well plate with a fluorometric substrate in HDAC assay buffer for 45 min at 37° C. An activator solution was then added to release the fluorophore from the deacetylated substrates, and fluorescence was measured in a plate-reading fluorimeter (excitation=390 nm, emission detection=460 nm).
To study the role of HDACs in pancreas development, the inventors treated rat pancreatic explants with VPA and TSA. They cultured E13.5 rat pancreases on floating filters at the air-medium interface for 14 days. Under such conditions, acinar and endocrine cells develop in a way that replicates pancreas development in vivo (2, 21). […] They next measured total HDAC activity from day 0 to day 14 and found a 65.4%±1.6% decrease between the two stages.

[3] = tested on: E13.5 rat pancreatic explants; experiment: Immunohistochemistry and surface-area quantification of cultured pancreatic explants; assay type: cell-based; settings: for NGN3+ cells: immunohistochemical analysis, day7; for increase in the number of glucagon-expressing cells: immunohistological analysis; for number of insulin+ cells: immunohistology, days 5 and 7; for acinar cell development (surface area occupied by amylase+ cells): vs control
Description: Dorsal pancreatic buds from E13.5 rat embryos were dissected as described previously (2).
as §2

[4] = tested on: E13.5 rat pancreatic explants; experiment: In situ hybridization of Ngn3 transcripts in cultured pancreatic explants; assay type: cell-based; settings: day5
Procedure: In situ hybridization: In situ hybridization was performed as previously described (15) and colorimetric development was performed with 5-bromo-4-chloro-3-indolyl phosphate (Promega) and nitroblue tetrazolium (Roche). No signal was obtained when a sense riboprobe was used.

[5] = tested on: E13.5 rat pancreatic explants; experiment: BrdU incorporation cell proliferation assay in pancreatic explants; assay type: cell-based; settings: for proliferative rate for glucagon+ cells: 5-day treatment, vs controls; for percentage of PDX1+/BrdU+: 1 day of culture, BrdU during last hour, control 30.4±1.4%; for proliferation of NGN3+ cells: after 3 days of culture
Procedure: (§1) (Invitrogen) supplemented with penicillin (100 U/mL), streptomycin (100 μg/mL), HEPES (10 mmol/L), L-glutamine (2mmol/L), non-essential amino acids (1x, Invitrogen) and 10% heat-inactivated calf serum (HyClone). Cultures were maintained at 37° C. in humidified 95% air/5% CO2. Medium was changed every other day. Explants were cultured in the presence of VPA or TSA (Sigma). We determined the optimal concentration of both inhibitors by testing increasing doses of VPA (from 0.75 mM to 3 mM) and TSA (from 50 nM to 200 nM). […] MS275 and NaB (Sigma) were used at 1 μM and 125 μM, respectively. For cell proliferation assay, 10 μM BrdU (Sigma) was added to the medium during the last hour of culture.
Immunohistochemistry and quantification: Tissues were fixed in 10% formalin, pre-embedded in low gelling agarose and embedded in paraffin. All sections (4 μm thick) of each pancreatic explant were collected and processed for immunohistochemistry, as described previously (14, 46). Antibodies were used at the following dilutions: mouse anti-insulin (Sigma, 1/2000), guinea pig anti-insulin (DAKO, 1/200), mouse anti-glucagon (Sigma, 1/2000), rabbit anti-amylase (Sigma, 1/300), goat anti-osteopontin/SPP1 (R&D systems, 1/200), rabbit anti-PDXI ((14), 1/1000), mouse anti-BrdU (Amersham, ½), rabbit anti-Ngn3 ((21), 1/1000). The fluorescent secondary antibodies were: fluorescein anti-rabbit and anti-goat antibodies (Jackson Immunoresearch, 1/200), Texas-red anti-mouse antibody (Jackson Immunoresearch, 1/200) Alexa fluor 488 anti-rabbit antibody (Biogenex, 1/400) and AMCA anti-guinea pig antibody (Jackson Immunoresearch, 1/200). Nuclei were stained blue with Hoechst 33342 (0.3 μg/ml, Invitrogen). Ngn3 detection was perfointed as previously described (21) using the Vectastain elite ABC kit (Vector Laboratories). Photographs were taken using a fluorescence microscope (Leitz DMRB, Leica) and digitized using cooled 3CCD cameras (C5810 or C7780, Hamamatsu). The surface area of each staining was quantified with IPLab (Scanalytics). The surface areas per section were summed to obtain the total surface area per explant in mm2. At least three explants were analyzed per condition and results are expressed as means±SEM. Statistical significance was determined using Student's t test.
Thus, they cultured pancreases for 1 day with or without VPA and TSA and added BrdU to the medium during the last hour of culture.

[6] = tested on: E13.5 rat pancreatic explants; experiment: TUNEL labelling of apoptotic amylase or insulin cells; assay type: cell-based
Procedure: TUNEL labelling: Terminal deoxynucleotidyltransferase-mediated dUTP-biotin nick end labeling (TUNEL) experiments were performed using an in situ cell death detection kit (Roche) and followed by insulin and amylase immunostaining.
The effects of HDACi treatment on pancreatic differentiation are independent of proliferation and apoptosis: The observed effects of HDACi on pancreatic development could be attributed to a direct effect of HDAC inhibition on the differentiation program itself or to an indirect effect on proliferation/apoptosis. First, the inventors asked whether the massive increase in the number of NGN3+ cells was accompanied by an increased proliferation of early PDX1+ pancreatic precursor cells that would give rise to more NGN3+ endocrine progenitor cells (20). Thus, they cultured pancreases for 1 day with or without VPA and TSA and added BrdU to the medium during the last hour of culture. No difference in BrdU incorporation was seen. The percentage of PDX1+/BrdU+ was 30.4±1.4% in control conditions, 29.3±2.3% with VPA and 31.9±1.4% in TSA-treated pancreases. They next determined whether the greater number of NGN3+ cells was associated with increased proliferation of such cells. […] Given the observed increase in glucagon-expressing cells with HDACi treatment, the inventors also tested for increased proliferation of such cells. […]

[7] = tested on: E13.5 rat pancreatic explants; experiment: Dose finding of HDACi in organ culture (cell death); settings: TSA tested from 50 nM to 200 nM; data not shown
Procedure: as §1

[8] = tested on: E13.5 rat pancreatic explants; experiment: Morphology of pancreases cultured with HDACi; assay type: cell-based; settings: for morphology of cultured pancreas (branching, cystic structures, acinar structures): after 7 days of culture
Description: as §2
HDACi treatment suppresses acinar differentiation and promotes ductal differentiation: The inventors first compared the morphology of pancreases cultured in the presence or absence of HDACi.

[9] = tested on: class I and class II HDACs; settings: background, refs 17 and Yoshida et al., 1990; cited from earlier work
[10] = real-time PCR, 7 days of culture

SMILES	endocrine β/δ lineage [1]	decrease in HDAC activity [2]	NeuroD1 expression ([1]; real-time PCR)	insulin expression [1, 10]	somatostatin expression [1, 10]	Arx expression enhanced ([1]; real-time PCR)	Ngn3 expression peak, higher than in controls ([1]; real-time PCR)	increase in PP expression ([1]; real-time PCR)	increase in glucagon expression ([1]; real-time PCR)	SPP1 expression ([1]; real-time PCR)	Ngn3 expression profile ([1]; real-time PCR)	Pax4 expression ([1]; real-time PCR)	increase in levels of Mist1 ([1]; real-time PCR)	increase in levels of P48 ([1]; real-time PCR)	increase in levels of amylase ([1]; real-time PCR)	NGN3+ cells [3]	increase in the number of glucagon-expressing cells [3]	number of insulin+ cells [3]	acinar cell development (surface area occupied by amylase+ cells) [3]	Ngn3 mRNA expression by in situ hybridization [4]	other results
Nc1ccccc1NC(=O)c1ccc(CNC(=O)OCc2cccnc2)cc1 [MS275]	results similar to those with VPA	–	–	–	–	–	–	–	–	–	–	–	–	–	–	–	–	–	–	–	–
CCCC(=O)[O-].[Na+] [NaB, sodium butyrate]	results similar to those with TSA	–	–	–	–	–	–	–	–	–	–	–	–	–	–	–	–	–	–	–	–
CC(/C=C/C(=O)NO)=C\[C@@H](C)C(=O)c1ccc(N(C)C)cc1 [TSA, trichostatin A]	–	99.2%±0.9%	strongly activated	no differences	no differences	~11 fold	14 fold	6 fold	25 fold	major increase	dramatic increase	strongly activated	strongly reduced	strongly reduced	strongly reduced	many were present	4 fold	no differences	much lower	enhanced Ngn3 expression	somatostatin expression ([1]; after 14 days in culture, data not shown): increased; insulin expression increased compared with controls ([1]; real-time PCR, day9): 2 fold; insulin expression increased compared with controls ([1]; real-time PCR, day11): 3 fold; insulin expression increased compared with controls ([1]; real-time PCR, day14): 5 fold; proliferative rate for glucagon+ cells [5]: no difference; percentage of PDX1+/BrdU+ [5]: 31.9±1.4%; proliferation of NGN3+ cells [5]: neither VPA nor TSA increased the proliferation; number of apoptotic cells expressing amylase or insulin ([6]; TUNEL method): neither VPA nor TSA treatments modified the number of apoptotic cells; concentrations that result in increased cell death [7]: above 125 nM; morphology of cultured pancreas (branching, cystic structures, acinar structures) [8]: the tips of the branched epithelium formed cystic structures; morphology: translucent buds at the periphery of the pancreas ([8]; after 11 days of culture): developed translucent buds; HDAC class selectivity [9]: inhibits both class I and class II HDACs
CCCC(CCC)C(=O)O [VPA, valproic acid]	–	93.2%±2.3%	significantly lower	dramatic decrease	almost full abolition	around 3 fold	14 fold	4 fold	5 fold	major increase	dramatic increase	dramatic decrease	strongly reduced	strongly reduced	strongly reduced	many were present	4 fold	major decrease	much lower	enhanced Ngn3 expression	insulin expression ([1]; tissues cultured for 14 days): remained dramatically low; insulin+ cells observed immunohistochemically ([3]; tissues cultured for 14 days): Few; proliferative rate for glucagon+ cells [5]: no difference; percentage of PDX1+/BrdU+ [5]: 29.3±2.3%; proliferation of NGN3+ cells [5]: neither VPA nor TSA increased the proliferation; number of apoptotic cells expressing amylase or insulin [6]: neither VPA nor TSA treatments modified the number of apoptotic cells; morphology of cultured pancreas (branching, cystic structures, acinar structures) [8]: the tips of the branched epithelium formed cystic structures; HDAC class selectivity [9]: preferentially targets class I HDACs
